# According to patent US8962831B2, “Tyrosine kinase inhibitors” (Principia Biopharma Inc., priority 2011, dated 2015):
# Assays:
# human recombinant Btk = human recombinant Btk (Homo sapiens, UniProt Q06187); assay: Btk enzymatic activity assay (Caliper-based kinase assay); assay type: biochemical; details: human recombinant Btk 2 nM, ATP 40 μM, room temperature 3 h
# Protocol: A Caliper-based kinase assay (Caliper Life Sciences, Hopkinton, Mass.) was used to measure inhibition of Btk kinase activity of a compound of Formula (IA), (I′) or (I). […] The reaction was then terminated with EDTA, final concentration 20 mM and the phosphorylated reaction product was quantified on a Caliper Desktop Profiler (Caliper LabChip 3000). […] This value is presented as the IC50.
# protein target = protein target (Homo sapiens, UniProt Q06187); assay: Reversibility of binding (compound in solution before and after perturbation of the target, HPLC-MS/MS)
# Protocol: The following approach was developed to differentiate compounds that form irreversible bonds with their targets, such as acrylamide compounds, from compound that bind reversibly. […] The reactions were then treated with perturbations including both denaturation with 5 M guanidine hydrochloride and digestion with trypsin, disrupting proper folding of the target. […] The concentration of compound in solution was assessed both preceding and following perturbation using high performance liquid chromatography (HPLC) coupled to tandem mass spectrometry.
# human recombinant Btk, sequence (Q06187 whole entry): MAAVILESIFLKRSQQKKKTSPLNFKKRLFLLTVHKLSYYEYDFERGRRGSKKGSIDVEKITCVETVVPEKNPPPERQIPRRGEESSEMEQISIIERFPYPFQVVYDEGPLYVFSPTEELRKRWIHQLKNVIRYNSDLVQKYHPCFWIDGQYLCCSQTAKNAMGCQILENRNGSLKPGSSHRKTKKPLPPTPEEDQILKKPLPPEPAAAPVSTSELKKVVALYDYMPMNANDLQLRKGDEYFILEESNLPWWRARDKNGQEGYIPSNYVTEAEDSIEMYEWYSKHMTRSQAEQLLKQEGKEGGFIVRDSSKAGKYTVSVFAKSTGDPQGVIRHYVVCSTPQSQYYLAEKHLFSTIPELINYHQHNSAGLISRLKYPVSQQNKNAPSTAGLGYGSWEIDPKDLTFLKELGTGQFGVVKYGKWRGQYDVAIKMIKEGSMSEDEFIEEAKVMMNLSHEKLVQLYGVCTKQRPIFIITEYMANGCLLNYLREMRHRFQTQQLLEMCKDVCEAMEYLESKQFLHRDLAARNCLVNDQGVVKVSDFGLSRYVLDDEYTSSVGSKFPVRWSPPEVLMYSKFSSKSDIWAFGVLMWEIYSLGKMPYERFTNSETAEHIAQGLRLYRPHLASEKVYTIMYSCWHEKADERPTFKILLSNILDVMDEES
# protein target, sequence (Q06187 2-659): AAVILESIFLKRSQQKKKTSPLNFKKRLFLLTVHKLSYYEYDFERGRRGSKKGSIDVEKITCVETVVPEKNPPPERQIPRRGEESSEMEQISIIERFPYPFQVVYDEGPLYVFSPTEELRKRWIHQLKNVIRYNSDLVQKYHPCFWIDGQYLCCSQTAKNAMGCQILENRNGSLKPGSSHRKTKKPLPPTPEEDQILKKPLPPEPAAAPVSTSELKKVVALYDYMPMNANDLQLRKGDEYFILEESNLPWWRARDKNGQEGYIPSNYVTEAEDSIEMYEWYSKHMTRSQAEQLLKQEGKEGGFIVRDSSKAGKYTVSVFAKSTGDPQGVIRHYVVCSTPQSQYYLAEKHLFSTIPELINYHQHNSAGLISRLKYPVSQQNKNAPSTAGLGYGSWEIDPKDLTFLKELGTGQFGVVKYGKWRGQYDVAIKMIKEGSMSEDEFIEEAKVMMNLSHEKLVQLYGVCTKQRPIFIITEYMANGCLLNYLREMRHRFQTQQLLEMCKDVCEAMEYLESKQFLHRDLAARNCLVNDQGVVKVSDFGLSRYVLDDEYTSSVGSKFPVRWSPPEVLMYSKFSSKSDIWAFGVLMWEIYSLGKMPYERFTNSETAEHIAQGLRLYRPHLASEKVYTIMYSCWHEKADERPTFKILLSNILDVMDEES
Structure (SMILES),IC50 (human recombinant Btk; compounds of Cpd Table 2) [nM],IC50 (human recombinant Btk; compounds of Cpd Table 1) [nM],other results
"N#CC(=CC1CC1)C(=O)N1CCC(n2nc(-c3ccc(NC(=O)c4ccc(C(F)(F)F)cc4)cc3)c3c(N)ncnc32)CC1 [Table 2-2, N-(4-(4-amino-1-(1-(2-cyano-3-cyclopropylacryloyl)piperidin-4-yl)-1H-pyrazolo[3,4-d]pyrimidin-3-yl)phenyl)-4-(trifluoromethyl)benzamide]",> 1000,,
"CC(C)(C)C=C(C#N)C(=O)NC1CCC(n2nc(-c3ccc(NC(=O)c4ccc(C(F)(F)F)cc4)cc3)c3c(N)ncnc32)CC1 (stereo not drawn) [Table 2-10, N-(4-(4-amino-1-((1s,4s)-4-(2-cyano-4,4-dimethylpent-2-enamido)cyclohexyl)-1H-pyrazolo[3,4-d]pyrimidin-3-yl)phenyl)-4-(trifluoromethyl)benzamide]",> 1000,,
"CC(C)(C)C=C(C#N)C(=O)N1CCC(n2nc(-c3ccc(NC(=O)c4ccc(C(F)(F)F)cc4)cc3)c3c(N)ncnc32)CC1 [Table 2-6, N-(4-(4-amino-1-(1-(2-cyano-4,4-dimethylpent-2-enoyl)piperidin-4-yl)-1H-pyrazolo[3,4-d]pyrimidin-3-yl)phenyl)-4-(trifluoromethyl)benzamide]",> 1000,,
N#CC(=CC1CC1)C(=O)NC1CCC(n2nc(-c3ccc(Oc4ccccc4)cc3)c3c(N)ncnc32)CC1 (stereo not drawn) [compound 11],,14,
"CC(C)(C)C=C(C#N)C(=O)N1CCCC(n2nc(-c3ccc(NC(=O)c4ccc(C(F)(F)F)cc4)cc3)c3c(N)ncnc32)C1 (stereo not drawn) [Table 2-3, N-(4-(4-amino-1-(1-(2-cyano-4,4-dimethylpent-2-enoyl)piperidin-3-yl)-1H-pyrazolo[3,4-d]pyrimidin-3-yl)phenyl)-4-(trifluoromethyl)benzamide]",13,,
CC(Cn1nc(-c2ccc(Oc3ccccc3)cc2F)c2c(N)ncnc21)NC(=O)C(C#N)=CC(C)(C)N (stereo not drawn) [Example 195],,6,
COc1cc(-c2nn(C3CCN(C(=O)C(C#N)=CC4CC4)CC3)c3ncnc(N)c23)ccc1Oc1ccc(Cl)c(Cl)c1 [compound 6],,365,
NC(=O)C(=CC1CC1)C(=O)N1CCC[C@@H](n2nc(-c3ccc(Oc4ccccc4F)cc3)c3c(N)ncnc32)C1 [Example 32A],,1.7,
"CC(C)(C)C=C(C#N)C(=O)NC1CCC(n2nc(-c3ccc(NC(=O)c4ccc(C(F)(F)F)cc4)cc3)c3c(N)ncnc32)CC1 (stereo not drawn) [Table 2-8, N-(4-(4-amino-1-((1r,4r)-4-(2-cyano-4,4-dimethylpent-2-enamido)cyclohexyl)-1H-pyrazolo[3,4-d]pyrimidin-3-yl)phenyl)-4-(trifluoromethyl)benzamide]",> 1000,,
"N#CC(=CC1CC1)C(=O)N1CCC[C@@H](n2cc(-c3ccc(Oc4ccccc4)cc3)c3c(N)ncnc32)C1 [Example 27, (R)-2-(3-(4-amino-5-(4-phenoxyphenyl)-7H-pyrrolo[2,3-d]pyrimidin-7-yl)piperidine-1-carbonyl)-3-cyclopropylacrylonitrile]",,,"compound in solution following perturbation of the target (protein target; after 5 M guanidine hydrochloride denaturation and trypsin digestion): returned to solution; Compound in solution in the denatured or digested state? (protein target; after denaturation with 5 M guanidine hydrochloride and digestion with trypsin): yes; depletion of compound from solution in the native (folded) state (protein target; before perturbation): depleted; Compound in solution in the native state? (protein target; protein target at higher concentration than compound, before perturbation): no"
COc1cc(-c2nn(C3CCCN(C(=O)C(C#N)=CC4CC4)C3)c3ncnc(N)c23)ccc1Oc1ccc(Cl)c(Cl)c1 (stereo not drawn) [compound 4],,61,
"N#CC(=CC1CC1)C(=O)N1CCCC(n2nc(-c3ccc(NC(=O)c4ccc(C(F)(F)F)cc4)cc3)c3c(N)ncnc32)C1 (stereo not drawn) [Table 2-1, N-(4-(4-amino-1-(1-(2-cyano-3-cyclopropylacryloyl)piperidin-3-yl)-1H-pyrazolo[3,4-d]pyrimidin-3-yl)phenyl)-4-(trifluoromethyl)benzamide]",62,,
"CC(C)(C)C=C(C#N)C(=O)N1CCCC1Cn1nc(-c2ccc(NC(=O)c3ccc(C(F)(F)F)cc3)cc2)c2c(N)ncnc21 (stereo not drawn) [Table 2-5, N-(4-(4-amino-1-((1-(2-cyano-4,4-dimethylpent-2-enoyl)pyrrolidin-2-yl)methyl)-1H-pyrazolo[3,4-d]pyrimidin-3-yl)phenyl)-4-(trifluoromethyl)benzamide]",180,,
"CC(C)(C)C=C(C#N)C(=O)N1CCCC(n2nc(-c3ccc(Oc4ccccc4)cc3)c3c(N)ncnc32)C1 (stereo not drawn) [Example 7, 2-(3-(4-amino-3-(4-phenoxyphenyl)-1H-pyrazolo[3,4-d]pyrimidin-1-yl)piperidine-1-carbonyl)-4,4-dimethylpent-2-enenitrile]",,1.3,
COc1cc(-c2nn(C3CCN(C(=O)C(C#N)=CC(C)(C)C)CC3)c3ncnc(N)c23)ccc1Oc1ccc(Cl)c(Cl)c1 [compound 9],,980,
